This passage reports IC50 results from patent publication US20250163104A1, “MACROCYCLIC IMMUNOMODULATORS” (priority 2021, published 2025).

Where a SMILES comes first, the peptide text is derived from it. Bridges are numbered along the chain shown (N, C = ends). [ ]: non-standard residue; d: D form. The star is where a group is joined. Phe(4-COOH) = N[C@@H](Cc1ccc(C(=O)O)cc1)C(=O)O; Bip = N[C@@H](Cc1ccc(-c2ccccc2)cc1)C(=O)O; Phe(4-Cl) = N[C@@H](Cc1ccc(Cl)cc1)C(=O)O; Phe(3-F) = N[C@@H](Cc1cccc(F)c1)C(=O)O; Phe(3-Me) = Cc1cccc(C[C@H](N)C(=O)O)c1; Cha = N[C@@H](CC1CCCCC1)C(=O)O; Cit = NC(=O)NCCC[C@H](N)C(=O)O; Carboxymethyl = O=C(O)C*; Orn = NCCC[C@H](N)C(=O)O; Dab = NCC[C@H](N)C(=O)O; Dap = NC[C@H](N)C(=O)O

The test deals with T1, human PD-1 / PD-L1-Ig binding on Jurkat cell line over-expressing human PD-1 (Jurkat-PD-1) (Homo sapiens, UniProt Q15116).
T1 construct: expressed in transfected cells; host or cells: Jurkat
T1 sequence (Q15116 25-288): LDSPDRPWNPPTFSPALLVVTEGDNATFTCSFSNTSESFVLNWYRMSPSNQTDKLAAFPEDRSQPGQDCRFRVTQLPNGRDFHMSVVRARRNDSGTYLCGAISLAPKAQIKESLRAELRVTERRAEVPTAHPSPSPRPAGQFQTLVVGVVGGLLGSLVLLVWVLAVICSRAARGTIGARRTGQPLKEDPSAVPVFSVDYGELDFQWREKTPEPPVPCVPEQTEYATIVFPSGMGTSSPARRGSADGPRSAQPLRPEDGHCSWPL
The test can be described thus: Jurkat-PD-1 Cell Binding High-Content Screening Assay (CBA). As to conditions: Jurkat-PD-1 cells, PE-labeled PD-L1-Ig 20 nM final; read-out: Jurkat HPD1_PDL1 IC50. Type of test: cell-based. In short, it runs like this:
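PE-PD-L1-Ig 20 nM final; cells in DMEM/10% FCS; cpd pre-incubation 2 h, 37° C; ligand 1 h; PFA fix + Hoechst 33342; high-content imaging read-out.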

With `CC[C@H](C)[C@@H]1NC(=O)[C@H](CC2CCCCC2)NC(=O)[C@H](CCN)NC(=O)[C@@H](CC(C)C)NC(=O)[C@H](CCCN)NC(=O)[C@H](CCCNC(N)=O)NC(=O)[C@H](Cc2ccc(-c3ccccc3)cc2)NC(=O)[C@H](C(C)C)NC(=O)[C@H](Cc2c[nH]c3ccccc23)NC(=O)[C@H](CC(=O)O)NC(=O)[C@H](Cc2ccc(OCC(=O)O)cc2)NC(=O)[C@H](CN)NC(=O)CSC[C@@H](C(=O)N[C@@H](C)C(N)=O)NC(=O)[C@H]([C@@H](C)O)NC1=O` [Compound 1314] ({CH2CO}-[Dap]Y(Carboxymethyl)DWV[Bip][Cit][Orn][dL][Dab][Cha]ITCA-NH2; thioether N-14), the IC50 stood at 9 nM.

Consider `CC(C)C[C@H]1NC(=O)[C@H](CCCN)NC(=O)[C@H](CCC(=O)O)NC(=O)[C@H](Cc2ccc(-c3ccccc3)cc2)NC(=O)[C@H](C(C)C)NC(=O)[C@H](Cc2c[nH]c3ccccc23)NC(=O)[C@H](CC(=O)O)NC(=O)[C@H](Cc2ccc(OCC(=O)O)cc2)NC(=O)[C@H](CN)NC(=O)CSC[C@@H](C(=O)N[C@@H](C)C(N)=O)NC(=O)[C@H]([C@@H](C)O)NC(=O)[C@H](C(C)C)NC(=O)[C@H](Cc2ccc(Cl)cc2)NC(=O)[C@H](CCN)NC1=O` [Compound 1472] ({CH2CO}-[Dap]Y(Carboxymethyl)DWV[Bip]E[Orn][dL][Dab][Phe(4-Cl)]VTCA-NH2; thioether N-14), for which the IC50 is 128 nM.

As to `Cc1cccc(C[C@@H]2NC(=O)[C@H](CC(=O)O)NC(=O)[C@H](Cc3ccc(C(=O)O)cc3)NC(=O)[C@H](CN)NC(=O)CSC[C@@H](C(=O)N[C@@H](C)C(N)=O)NC(=O)[C@H]([C@@H](C)O)NC(=O)[C@H](C(C)C)NC(=O)[C@H](CC(C)C)NC(=O)[C@H](CCN)NC(=O)[C@@H](CC(C)C)NC(=O)[C@H](CCCN)NC(=O)[C@H](C(C)C)NC(=O)[C@H](Cc3ccc(-c4ccccc4)cc3)NC(=O)[C@H](C(C)C)NC2=O)c1` [Compound 1219] ({CH2CO}-[Dap][Phe(4-COOH)]D[Phe(3-Me)]V[Bip]V[Orn][dL][Dab]LVTCA-NH2; thioether N-14), the half-inhibitory concentration (IC50) came out at 5.4 nM.

As for `CC(C)C[C@H]1NC(=O)[C@H](CCCN)NC(=O)[C@H](CCC(=O)O)NC(=O)[C@H](Cc2ccc(-c3ccccc3)cc2)NC(=O)[C@H](C(C)C)NC(=O)[C@H](Cc2c[nH]c3ccccc23)NC(=O)[C@H](CC(=O)O)NC(=O)[C@H](Cc2ccc(OCC(=O)O)cc2)NC(=O)[C@H](CN)NC(=O)CSC[C@@H](C(=O)N[C@@H](C)C(N)=O)NC(=O)[C@H]([C@@H](C)O)NC(=O)[C@H](C(C)C)NC(=O)[C@H](Cc2cccc(F)c2)NC(=O)[C@H](CCN)NC1=O` [Compound 1677] ({CH2CO}-[Dap]Y(Carboxymethyl)DWV[Bip]E[Orn][dL][Dab][Phe(3-F)]VTCA-NH2; thioether N-14), the IC50 is 21.1 nM.

For `CC(C)C[C@H]1NC(=O)[C@H](CCCN)NC(=O)[C@H](CCCN)NC(=O)[C@H](Cc2ccc(-c3ccccc3)cc2)NC(=O)[C@H](C(C)C)NC(=O)[C@H](Cc2c[nH]c3ccccc23)NC(=O)[C@H](CC(=O)O)NC(=O)[C@H](Cc2ccc(C(=O)O)cc2)NC(=O)[C@H](Cc2ccc(OCC(=O)O)cc2)NC(=O)CSC[C@@H](C(=O)N[C@@H](C)C(N)=O)NC(=O)[C@H]([C@@H](C)O)NC(=O)[C@H](C(C)C)NC(=O)[C@H](CC2CCCCC2)NC(=O)[C@H](CCN)NC1=O` [Compound 1382] ({CH2CO}-Y(Carboxymethyl)[Phe(4-COOH)]DWV[Bip][Orn][Orn][dL][Dab][Cha]VTCA-NH2; thioether N-14), the IC50 was 14 nM.

As to `CC[C@H](C)[C@@H]1NC(=O)[C@H](Cc2ccc(-c3ccccc3)cc2)NC(=O)[C@H](CC(C)C)NC(=O)[C@H](Cc2c[nH]c3ccccc23)NC(=O)[C@H](CC(=O)O)NC(=O)[C@H](Cc2ccc(OCC(=O)O)cc2)NC(=O)[C@H](CN)NC(=O)CSC[C@@H](C(=O)N[C@@H](C)C(N)=O)NC(=O)[C@H]([C@@H](C)O)NC(=O)[C@H](C(C)C)NC(=O)[C@H](CC(C)C)NC(=O)[C@H](CCN)NC(=O)[C@@H](CC(C)C)NC(=O)[C@H](CCCN)NC1=O` [Compound 1370] ({CH2CO}-[Dap]Y(Carboxymethyl)DWL[Bip]I[Orn][dL][Dab]LVTCA-NH2; thioether N-14), the IC50 worked out at 6.4 nM.

In general, IC50 refers to the point on the concentration scale where inhibition reaches its midpoint.
